Our source for the Ki values is US10028942B2 (priority 2013, dated 2018).

The test deals with T1, DLK (Homo sapiens, UniProt Q12852).
T1 sequence (Q12852 1-520): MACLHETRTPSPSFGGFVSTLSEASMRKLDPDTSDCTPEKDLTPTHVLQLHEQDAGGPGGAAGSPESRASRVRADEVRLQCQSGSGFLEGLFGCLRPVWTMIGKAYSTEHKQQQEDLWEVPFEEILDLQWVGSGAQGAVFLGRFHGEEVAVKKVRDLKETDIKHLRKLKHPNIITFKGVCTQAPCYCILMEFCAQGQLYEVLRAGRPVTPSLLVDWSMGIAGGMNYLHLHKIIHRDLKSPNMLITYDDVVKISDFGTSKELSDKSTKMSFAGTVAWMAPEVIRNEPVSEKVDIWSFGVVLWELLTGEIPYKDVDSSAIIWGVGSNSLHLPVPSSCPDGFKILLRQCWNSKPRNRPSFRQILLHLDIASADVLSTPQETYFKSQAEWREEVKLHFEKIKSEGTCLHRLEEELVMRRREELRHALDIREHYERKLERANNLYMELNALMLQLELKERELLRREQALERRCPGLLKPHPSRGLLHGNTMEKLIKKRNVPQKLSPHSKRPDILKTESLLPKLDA
As to conditions: read-out: DLK (Ki) μM; TR-FRET; 5 nM GST-tagged DLK (catalytic domain aa 1-520), 40 nM HIS-MKK4 K131M substrate, 30 μM ATP, 60 minutes.
As for `CC(C)Oc1cc(-c2cc([C@H]3[C@@H]4CN(C5COC5)C[C@@H]43)n(C(C)C)n2)cnc1N` [Compound 146, 3-isopropoxy-5-(1-isopropyl-5-((1R,5S,6r)-3-(oxetan-3-yl)-3-azabicyclo [3.1.0]hexan-6-yl)-1H-pyrazol-3-yl) pyridin-2-amine], the Ki worked out at 0.014 µM. Take `Cc1c[nH]c2ncc(-c3cc(C4CCOC4)n(C4CC(F)(F)C4)n3)cc12` (stereo not drawn) [Compound 19, 5-(1-(3,3-difluorocyclobutyl)-5-(tetrahydrofuran-3-yl)-1H-pyrazol-3-yl)-3-methyl-1H-pyrrolo[2,3-b]pyridine]: the inhibition constant Ki was 0.082 µM. With `COCCN1C[C@@H]2[C@H](C1)[C@H]2c1cc(-c2cnc(N)c(C(F)(F)F)c2)nn1CC(F)(F)F` [Compound 126, 5-(5-((1R,5S,6r)-3-(2-methoxyethyl)-3-azabicyclo[3.1.0]hexan-6-yl)-1-(2,2,2-trifluoroethyl)-1H-pyrazol-3-yl)-3-(trifluoromethyl)pyridin-2-amine], the Ki was 0.0019 µM.

Consider `CC(C)n1nc(-c2cnc(N)c(C(F)(F)F)c2)cc1[C@H]1[C@@H]2CN(CC(F)F)C[C@@H]21` [Compound 109, 5-(5-((1R,5S,6r)-3-(2,2-difluoroethyl)-3-azabicyclo[3.1.0]hexan-6-yl)-1-isopropyl-1H-pyrazol-3-yl)-3-(trifluoro-methyl)pyridin-2-amine], for which the Ki stood at 0.001 µM. With `CC(C)n1nc(-c2cnc3[nH]cc(C(F)(F)F)c3c2)cc1C1CN(C2COC2)C1` [Compound 54, 5-(1-isopropyl-5-(1-(oxetan-3-yl)aze-tidin-3-yl)-1H-pyrazol-3-yl)-3-(trifluoro-methyl)-1H-pyrrolo[2,3-b]pyridine], the inhibitory constant (Ki) was 0.00048 µM. As for `CC(C)c1cc(-c2cnc3[nH]cc(C(F)(F)F)c3c2)nn1C1CN(C2COC2)C1` [Compound 1, 5-(5-isopropyl-1-(1-(oxetan-3-yl)azetidin-3-yl)-1H-pyrazol-3-yl)-3-(trifluoromethyl)-1H-pyrrolo[2,3-b]pyridine], the Ki came to 0.034 µM. As to `Cc1c[nH]c2ncc(-c3cc(C4CCN(C)C(=O)C4)n(C4CC(F)(F)C4)n3)cc12` (stereo not drawn) [Compound 42, 4-(1-(3,3-difluorocyclobutyl)-3-(3-meth-yl-1H-pyrrolo[2,3-b]pyridin-5-yl)-1H-pyrazol-5-yl)-1-methylpiperidin-2-one], the Ki was determined as 0.25 µM. As for `CC(C)n1nc(-c2cnc3[nH]cc(C#N)c3c2)cc1[C@H]1[C@@H]2CN(C3COC3)C[C@@H]21` [Compound 132, 5-(1-isopropyl-5-((1R,5S,6r)-3-(oxetan-3-yl)-3-azabicyclo[3.1.0]hexan-6-yl)-1H-pyrazol-3-yl)-1H-pyrrolo[2,3-b]pyridine-3-carbonitrile], the figure is 0.025 µM; as for `CC(C)n1nc(-c2cnc(N)c(C(C)(F)F)c2)cc1[C@H]1[C@@H]2CN(C3COC3)C[C@@H]21` [Compound 175, 3-(1,1-difluoroethyl)-5-(1-isopropyl-5-((1R,5S,6r)-3-(oxetan-3-yl)-3-aza-bicyclo[3.1.0]hexan-6-yl)-1H-pyrazol-3-yl)pyridin-2-amine], 0.0092 µM; as for `Nc1ncc(-c2cc([C@H]3[C@@H]4CN(C5COC5)C[C@@H]43)n(C3CC3)n2)cc1C(F)F` [Compound 170, 5-(1-cyclopropyl-5-((1R,5S,6r)-3-(oxe-tan-3-yl)-3-azabicyclo[3.1.0]hexan-6-yl)-1H-pyrazol-3-yl)-3-(difluoro-methyl)pyridin-2-amine], 0.012 µM. In the case of `CC(C)n1nc(-c2cnc(N)c(C(F)F)c2)cc1[C@H]1[C@@H]2CN(C3COC3)C[C@@H]21` [Compound 158, 3-(difluoromethyl)-5-(1-isopropyl-5-((1R,5S,6r)-3-(oxetan-3-yl)-3-azabi-cyclo[3.1.0]hexan-6-yl)-1H-pyrazol-3-yl)pyridin-2-amine], the Ki stood at 0.035 µM. Turning to `CC(C)n1nc(-c2cnc3[nH]cc(C#N)c3c2)cc1C1CCN(CC(F)(F)F)CC1` [Compound 46, 5-(1-isopropyl-5-(1-(2,2,2-trifluoroethyl)piperidin-4-yl)-1H-pyrazol-3-yl)-1H-pyrrolo[2,3-b]pyridine-3-carbonitrile], the inhibition constant (Ki) came to 0.028 µM.

With `Nc1ncc(-c2cc([C@H]3[C@@H]4CN(C5COC5)C[C@@H]43)n(C3CCC3)n2)cc1OC(F)(F)F` [Compound 163, 5-(1-cyclobutyl-5-((1R,5S,6r)-3-(oxe-tan-3-yl)-3-azabicyclo[3.1.0]hexan-6-yl)-1H-pyrazol-3-yl)-3-(trifluorometh-oxy)pyridin-2-amine], the Ki is 0.013 µM. On to `Nc1ncc(-c2cc([C@H]3[C@@H]4CN(C5COC5)C[C@@H]43)n(C3CCCC3)n2)cc1C1CC1` [Compound 139, 5-(1-cyclopentyl-5-((1R,5S,6r)-3-(oxe-tan-3-yl)-3-azabicyclo[3.1.0]hexan-6-yl)-1H-pyrazol-3-yl)-3-cyclopro-pylpyridin-2-amine], for which the Ki turned out to be 0.037 µM. For `CC(C)n1nc(-c2cnc(N)c(OC(F)F)c2)cc1[C@H]1[C@@H]2CN(CC(F)(F)F)C[C@@H]21` [Compound 110, 3-(difluoromethoxy)-5-(1-isopropyl-5-((1R,5S,6r)-3-(2,2,2-trifluoroethyl)-3-azabicyclo[3.1.0]hexan-6-yl)-1H-pyrazol-3-yl)pyridin-2-amine], the Ki stood at 0.0045 µM. In the case of `CC(C)n1nc(-c2cnc(N)c(C(F)(F)F)c2)cc1C(C)(C)O` [Compound 2, 2-(3-(6-amino-5-(trifluoromethyl)py-ridin-3-yl)-1-isopropyl-1H-pyrazol-5-yl)propan-2-ol], the Ki worked out at 0.11 µM. With `N#Cc1cc(-c2cc([C@H]3[C@@H]4CN(C5COC5)C[C@@H]43)n(C3CCCC3)n2)cnc1N` [Compound 138, 2-amino-5-(1-cyclopentyl-5-((1R,5S,6r)-3-(oxetan-3-yl)-3-azabicyclo[3.1.0]hexan-6-yl)-1H-pyrazol-3-yl)nicoti-nitrile], the Ki stood at 0.031 µM. For `CC(=O)N1C[C@@H]2[C@H](C1)[C@H]2c1cc(-c2cnc(N)c(C(F)(F)F)c2)nn1C(C)C` [Compound 115, 1-((1R,5S,6r)-6-(3-(6-amino-5-(trifluoro-methyl)pyridin-3-yl)-1-isopropyl-1H-pyrazol-5-yl)-3-azabicyclo[3.1.0]hexan-3-yl)ethanone], the Ki is 0.0056 µM. As for `COCCN1C[C@@H]2[C@H](C1)[C@H]2c1cc(-c2cnc(N)c(C(F)(F)F)c2)nn1CC1CCC1` [Compound 124, 5-(1-(cyclobutylmethyl)-5-((1R,5S,6r)-3-(2-methoxyethyl)-3-azabicyclo [3.1.0]hexan-6-yl)-1H-pyrazol-3-yl)-3-(trifluoromethyl)pyridin-2-amine], the Ki amounted to 0.027 µM. For `CC(C)OC(=O)N1C[C@@H]2[C@H](C1)[C@H]2c1cc(-c2cnc(N)c(C(F)(F)F)c2)nn1C(C)C` [Compound 130, (1R,5S,6r)-isopropyl 6-(3-(6-amino-5-(trifluoromethyl)pyr-ridin-3-yl)-1-isopropyl-1H-pyrazol-5-yl)-3-azabicyclo[3.1.0]hexane-3-car-boxylate], the Ki stood at 0.0056 µM.

Turning to `Nc1ncc(-c2cc([C@H]3[C@@H]4CN(C5COC5)C[C@@H]43)n(CC3CCC3)n2)cc1C1CC1` [Compound 162, 5-(1-(cyclobutylmethyl)-5-((1R,5S,6r)-3-(oxetan-3-yl)-3-azabicyclo[3.1.0]hexan-6-yl)-1H-pyrazol-3-yl)-3-cyclopropylpyridin-2-amine], the Ki turned out to be 0.066 µM. With `CC(C)n1nc(-c2cnc3[nH]cc(F)c3c2)cc1C1CN(C2COC2)C1` [Compound 58, 3-fluoro-5-(1-isopropyl-5-(1-(oxetan-3-yl)azetidin-3-yl)-1H-pyrazol-3-yl)-1H-pyrrolo[2,3-b]pyridine], the Ki was 0.64 µM. Regarding `CC(C)n1nc(-c2cnc(N)c(OC(F)F)c2)cc1[C@H]1[C@@H]2CN(C3COC3)C[C@@H]21` [Compound 141, 3-(difluoromethoxy)-5-(1-isopropyl-5-((1R,5S,6r)-3-(oxetan-3-yl)-3-aza-bicyclo[3.1.0]hexan-6-yl)-1H-pyrazol-3-yl)pyridin-2-amine], the Ki was found to be 0.008 µM.

For the compound `Nc1ncc(-c2cc([C@H]3[C@@H]4CN(C5COC5)C[C@@H]43)n(C3CC3)n2)cc1C(F)(F)F` [Compound 168, 5-(1-cyclopropyl-5-((1R,5S,6r)-3-(oxe-tan-3-yl)-3-azabicyclo[3.1.0]hexan-6-yl)-1H-pyrazol-3-yl)-3-(trifluoro-methyl)pyridin-2-amine], the Ki was 0.0047 µM. In the case of `CC(C)Oc1cc(-c2cc(C3CCN(C4COC4)CC3)n(C3CCCC3)n2)cnc1N` [Compound 90, 5-(1-cyclopentyl-5-(1-(oxetan-3-yl)piperidin-4-yl)-1H-pyrazol-3-yl)-3-iso-propoxypyridin-2-amine], the Ki is 0.12 µM. For `Nc1ncc(-c2cc([C@H]3[C@@H]4CN(C5COC5)C[C@@H]43)n(C3CCCC3)n2)cc1C(F)(F)F` [Compound 135, 5-(1-cyclopentyl-5-((1R,5S,6r)-3-(oxetan-3-yl)-3-azabicyclo[3.1.0]hexan-6-yl)-1H-pyrazol-3-yl)-3-(trifluoromethyl)pyridin-2-amine], the Ki stood at 0.0089 µM. In the case of `CCOc1cc(-c2cc(C3CCN(C4COC4)CC3)n(C3CCC(F)(F)C3)n2)cnc1N` (stereo not drawn) [Compound 85, 5-(1-(3,3-difluorocyclopentyl)-5-(1-(oxetan-3-yl)piperidin-4-yl)-1H-pyra-zol-3-yl)-3-ethoxypyridin-2-amine] it was 0.99 µM.
